The compounds below were run against T1, CD73 activity in MDA-MB-231-GFP cells (Homo sapiens, UniProt P21589) (assay: MDA-MB-231 Cell Based CD73 Activity Assay (DMEM)). Details: 3000 cells per well, DMEM medium with 10% human plasma, overnight compound treatment, AMP 200 uM.
T1 construct: endogenous in cells; host or cells: MDA-MB-231-GFP cells
T1 sequence (P21589 27-549): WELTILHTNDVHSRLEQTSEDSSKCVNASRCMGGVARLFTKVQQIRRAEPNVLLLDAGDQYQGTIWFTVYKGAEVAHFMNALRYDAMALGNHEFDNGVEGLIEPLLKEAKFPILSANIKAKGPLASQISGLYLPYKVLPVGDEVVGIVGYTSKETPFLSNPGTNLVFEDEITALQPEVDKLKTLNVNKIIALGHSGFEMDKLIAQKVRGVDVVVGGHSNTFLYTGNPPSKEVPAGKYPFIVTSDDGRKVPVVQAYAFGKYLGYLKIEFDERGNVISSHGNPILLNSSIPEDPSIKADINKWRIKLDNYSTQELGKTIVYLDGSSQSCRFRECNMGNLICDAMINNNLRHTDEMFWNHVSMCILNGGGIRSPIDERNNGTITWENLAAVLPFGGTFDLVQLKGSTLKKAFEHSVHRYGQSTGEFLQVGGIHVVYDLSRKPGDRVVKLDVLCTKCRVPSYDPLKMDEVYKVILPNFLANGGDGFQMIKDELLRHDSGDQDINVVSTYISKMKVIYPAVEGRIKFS
Method: MDA-MB-231 Cell Based CD73 Activity Assay (DMEM) MDA-MB-231-GFP cells were seeded in 384-well plates (Greiner 781946) at a density of 3000 cells per well in 50 μL of DMEM medium with 10% HP (human plasma). Cells were plated into assay plate with compounds pre-spotted, for an overnight compound treatment. 50 uL of 400 uM AMP (final concentration will be 200 uM) was added using Bio-tek dispenser. Plates were incubated for 100 mins. […] The samples were analyzed using Rapid fire.

| EC50 [nM] | SMILES |
| --- | --- |
| 9.45 | Cn1cc([C@H]2C[C@@H]2c2cc(-c3c[nH]c(=O)[nH]c3=O)nn3ccnc23)ccc1=O (racemic) [Example 184, 5-(8-((1S,2S)-2-(1-methyl-6-oxo-1,6-dihydropyridin-3-yl)cyclopropyl)imidazo[1,2-b]pyridazin-6-yl)pyrimidine-2,4(1H,3H)-dione] |
| 0.72 | CC1(C)C(=O)N(CC(F)(F)F)c2cc([C@H]3C[C@@H]3c3cc(-c4c[nH]c(=O)[nH]c4=O)nn4c(Cl)cnc34)ccc21 (racemic) [Example 212, 5-[3-chloro-8-[(1S,2S)-2-[3,3-dimethyl-2-oxo-1-(2,2,2-trifluoroethyl)indolin-6-yl]cyclopropyl]imidazo[1,2-b]pyridazin-6-yl]-1H-pyrimidine-2,4-dione] |
| 0.45 | O=c1[nH]cc(-c2cc([C@H]3C[C@@H]3c3ccc4c(F)nn(CC(F)(F)F)c4c3)c3ncc(Cl)n3n2)c(=O)[nH]1 (racemic) [Example 213, 5-[3-chloro-8-[(1S,2S)-2-[3-fluoro-1-(2,2,2-trifluoroethyl)indazol-6-yl]cyclopropyl]imidazo[1,2-b]pyridazin-6-yl]-1H-pyrimidine-2,4-dione] |
| 2.78 | O=c1[nH]cc(-c2cc([C@H]3C[C@@H]3c3ccc4ncsc4c3)c3nccn3n2)c(=O)[nH]1 (racemic) [Example 276, 5-(8-((1S,2S)-2-(benzo[d]thiazol-6-yl)cyclopropyl)imidazo[1,2-b]pyridazin-6-yl)pyrimidine-2,4(1H,3H)-dione] |
| 38.9 | O=c1[nH]cc(-c2cc([C@H]3C[C@@H]3c3ccc4c(c3)OC(F)(F)O4)c3ncc(F)n3n2)c(=O)[nH]1 (racemic) [Example 278, 5-(8-((2S,2S)-2-(2,2-difluorobenzo[d][1,3]dioxol-5-yl)cyclopropyl)-3-fluoroimidazo[1,2-b]pyridazin-6-yl)pyrimidine-2,4(1H,3H)-dione] |
| 77.8 | O=c1[nH]cc(-c2cc([C@H]3C[C@@H]3c3ccc(OC(F)(F)F)cc3F)c3nccn3n2)c(=O)[nH]1 (racemic) [Example 280, 5-(8-((1S,2S)-2-(2-fluoro-4-(trifluoromethoxy)phenyl)cyclopropyl)imidazo[1,2-b]pyridazin-6-yl)pyrimidine-2,4(1H,3H)-dione] |
| 8.23 | COC(=O)c1ccc([C@H]2C[C@@H]2c2cc(-c3c[nH]c(=O)[nH]c3=O)nn3ccnc23)cc1 (racemic) [Example 281, methyl 4-((2S,2S)-2-(6-(2,4-dioxo-1,2,3,4-tetrahydropyrimidin-5-yl)imidazo[1,2-b]pyridazin-8-yl)cyclopropyl)benzoate] |
| 11.7 | COC(=O)c1cccc([C@H]2C[C@@H]2c2cc(-c3c[nH]c(=O)[nH]c3=O)nn3ccnc23)c1 (racemic) [Example 282, methyl 3-((2S,2S)-2-(6-(2,4-dioxo-1,2,3,4-tetrahydropyrimidin-5-yl)imidazo[1,2-b]pyridazin-8-yl)cyclopropyl)benzoate] |
| 3.49 | NC(=O)c1cccc([C@H]2C[C@@H]2c2cc(-c3c[nH]c(=O)[nH]c3=O)nn3ccnc23)c1 (racemic) [Example 284, 3-((1S,2S)-2-(6-(2,4-dioxo-1,2,3,4-tetrahydropyrimidin-5-yl)imidazo[1,2-b]pyridazin-8-yl)cyclopropyl)benzamide] |
| 2.99 | CNC(=O)c1ccc([C@H]2C[C@@H]2c2cc(-c3c[nH]c(=O)[nH]c3=O)nn3ccnc23)cc1 (racemic) [Example 285, 4-((2S,2S)-2-(6-(2,4-dioxo-1,2,3,4-tetrahydropyrimidin-5-yl)imidazo[1,2-b]pyridazin-8-yl)cyclopropyl)-N-methylbenzamide] |
| 2.42 | CNC(=O)c1cccc([C@H]2C[C@@H]2c2cc(-c3c[nH]c(=O)[nH]c3=O)nn3ccnc23)c1 (racemic) [Example 286, 3-((2S,2S)-2-(6-(2,4-dioxo-1,2,3,4-tetrahydropyrimidin-5-yl)imidazo[1,2-b]pyridazin-8-yl)cyclopropyl)-N-methylbenzamide] |

Source: US12110294B2, “CD73 compounds” (Gilead Sciences, Inc., priority 2020, dated 2024)
